Measured values: US11273152B2, “TRPV2 antagonists” (Instituto de Medicina Molecular João Lobo Antunes, priority 2017, dated 2022)
Values belong to the compound of their own block, whether it stands above or below them.

Assays:
[1] = biological target: T1, TRPV2 (Homo sapiens, UniProt Q9Y5S1); experiment: Manual patch-clamp assay, hTRPV2 stable HEK-293 cells; type: cell-based; settings: n=3
T1 sequence (Q9Y5S1 1-764): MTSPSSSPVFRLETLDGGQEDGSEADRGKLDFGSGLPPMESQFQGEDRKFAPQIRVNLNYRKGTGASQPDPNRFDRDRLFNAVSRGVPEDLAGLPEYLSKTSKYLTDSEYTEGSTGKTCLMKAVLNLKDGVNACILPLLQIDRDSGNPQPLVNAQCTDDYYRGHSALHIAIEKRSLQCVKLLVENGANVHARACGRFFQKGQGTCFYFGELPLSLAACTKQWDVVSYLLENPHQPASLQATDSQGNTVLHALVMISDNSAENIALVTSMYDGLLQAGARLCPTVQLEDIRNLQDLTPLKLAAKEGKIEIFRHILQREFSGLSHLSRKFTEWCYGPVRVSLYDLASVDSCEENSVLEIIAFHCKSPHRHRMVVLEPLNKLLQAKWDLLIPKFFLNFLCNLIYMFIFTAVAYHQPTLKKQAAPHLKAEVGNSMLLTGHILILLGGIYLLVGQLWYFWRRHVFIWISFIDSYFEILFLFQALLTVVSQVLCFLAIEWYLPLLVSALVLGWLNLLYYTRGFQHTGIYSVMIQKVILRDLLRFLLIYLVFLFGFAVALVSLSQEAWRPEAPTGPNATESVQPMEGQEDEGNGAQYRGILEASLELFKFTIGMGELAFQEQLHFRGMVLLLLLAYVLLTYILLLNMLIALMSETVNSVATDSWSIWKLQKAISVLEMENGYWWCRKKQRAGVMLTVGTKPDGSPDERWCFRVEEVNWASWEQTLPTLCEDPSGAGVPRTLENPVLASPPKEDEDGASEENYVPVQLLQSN
Experimental: The assays were performed at SB Discovery (Glasgow, UK) on a fee-for-service basis. Concentration-response curves and washout assays were performed using a manual patch clamp method. HEK-293 cells were grown and prepared, according to the adapted procedure for hTRPV2 stable cell lines at SB Discovery. Cells were serum starved for approximately 24 hours and then changed to serum-containing media prior to electrophysiology testing. The manual patch-clamp assay was carried out at room temperature using a traditional electrophysiological unit. Cells were used within 2-3 hours after addition of serum containing media to the cells. The standard extracellular solution contained 145 mM NaCl, 4 mM KCl, 2 mM CaCl2, 1 mM MgCl2, 10 mM HEPES and 10 mM glucose. The pH was adjusted to 7.4 with NaOH, and the osmolarity was measured as 311 mOsm/L. The standard intracellular solution contained 50 mM KCl, 10 mM NaCl, 60 mM KF, 2 mM MgCl2, 20 mM EGTA and 10 mM HEPES. The pH was adjusted to 7.2 with KOH and the osmolarity was measured as 286 mOsm/L. A standard ramp protocol was used to monitor currents upon addition of control (extracellular solution) and compound solutions. The voltage protocol consisted of a series of voltage ramps from −100 mV to +100 mV, every 5 seconds, from a holding potential of −60 mV. The maximum outward current values during the recordings at +100 mV were used for analysis. Manual patch clamp experiments were carried out using an Axon 200B amplifier and a Digidata 1440A acquisition system from Axon Instruments (Molecular Devices, USA). The software program pClamp (version 10) from Axon Instruments was used to stimulate and record electrical activity. Capacitative transients were compensated electronically from the recordings, however the voltage drop across the series resistance and the liquid junction potential were not compensated. The series resistance was generally less than 10 MΩ, with a mean cell capacity of approximately 25 pF. The GraphPad Prism (version 5) software was used to analyze and plot all graphs. The agonist (cannabidiol; Abcam #ab120448) was prepared as 100 mM stock in 100% DMSO and diluted to 4 μM or 10 μM in physiological solution prior to testing. Piperlongumine was prepared as 100 mM stock in 100% DMSO and diluted to the specified concentrations in physiological solution (100, 50, 10, 1 and 0.1 μM), also containing 4 μM or 10 μM cannabidiol. Ruthenium red (Sigma, #R2751) was prepared daily as 10 mM stock ion distilled water and diluted to 100 μM in physiological solution.

[2] = biological target: TRPC7 (Homo sapiens, UniProt Q9HCX4); experiment: Fluorescence cell-based assay, TRPC7; settings: membrane potential dye, spread in log units, duplicate
Experimental: (§1) The assays were performed at SB Discovery (Glasgow, UK) on a fee-for-service basis. Human TRP cells were trypsinised, counted and seeded in black, clear-bottomed 96 well plates at a density of 50,000 cells per well in 100 μL volume and incubated overnight. Next day, the cells were loaded with calcium 5 dye or membrane potential dye. TRPV1-5, TRPA1, TRPM2, TRPM3, and TRPM8 were tested using the calcium 5 dye. TRPC1, TRPC3-7, and TRPM4-5 were tested using the membrane potential dye. Both dye solutions were made up in HEPES buffered Hank's balanced salt solution (HBSS). Dye solution (90 μL) was added to the wells and incubated at 37° C. for 1 hour. Test compounds and standard inhibitors (10 μL) were then added to the wells and incubated at room temperature for 10 minutes. The plates were then placed in the flexstation and fluorescence monitored every 1.52 seconds. After 20 seconds agonist was added and the fluorescence monitored for 2 minutes at 485 nm/525 nm and 530 nm/565 nm, Ex/Em, for the calcium 5 dye and the membrane potential dye respectively. Controls-TRPV1: capsazepine; TRPV2: tranilast; TRPV3: ruthenium red; TRPV4: ruthenium red; TRPV5: Gd^3+; TRPA1, ruthenium red; TRPC1: Gd^3+; TRPC3: Pyr3; TRPC4: ML 204; TRPC5: ML 204; TRPC6: ML 204; TRPC7: SKF 96365; TRPM2: 2-APB; TRPM3: Mef acid; TRPM4: clotrimazole; TRPM5: TPPO; TRPM8: 2-APB. […]

[3] = biological target: T1, TRPV2; experiment: Fluorescence cell-based assay, TRPV2 (cannabidiol-evoked calcium influx); settings: spread in log units; n=2; read-out: IC50 against TRPV2, fluorescence-based assay (FIG. 2a)
Experimental: The assays were performed at SB Discovery (Glasgow, UK) on a fee-for-service basis. Human TRP cells were trypsinised, counted and seeded in black, clear-bottomed 96 well plates at a density of 50,000 cells per well in 100 μL volume and incubated overnight. Next day, the cells were loaded with calcium 5 dye or membrane potential dye. TRPV1-5, TRPA1, TRPM2, TRPM3, and TRPM8 were tested using the calcium 5 dye. TRPC1, TRPC3-7, and TRPM4-5 were tested using the membrane potential dye. Both dye solutions were made up in HEPES buffered Hank's balanced salt solution (HBSS). Dye solution (90 μL) was added to the wells and incubated at 37° C. for 1 hour. Test compounds and standard inhibitors (10 μL) were then added to the wells and incubated at room temperature for 10 minutes. The plates were then placed in the flexstation and fluorescence monitored every 1.52 seconds. After 20 seconds agonist was added and the fluorescence monitored for 2 minutes at 485 nm/525 nm and 530 nm/565 nm, Ex/Em, for the calcium 5 dye and the membrane potential dye respectively. Controls-TRPV1: capsazepine; TRPV2: tranilast; TRPV3: ruthenium red; TRPV4: ruthenium red; TRPV5: Gd^3+; TRPA1, ruthenium red; TRPC1: Gd^3+; TRPC3: Pyr3; TRPC4: ML 204; TRPC5: ML 204; TRPC6: ML 204; TRPC7: SKF 96365; TRPM2: 2-APB; TRPM3: Mef acid; TRPM4: clotrimazole; TRPM5: TPPO; TRPM8: 2-APB. Control data was in all cases within historical range.

[4] = biological target: TRPA1 (Homo sapiens, UniProt O75762); experiment: Fluorescence cell-based assay, TRPA1; settings: calcium 5 dye, spread in log units, duplicate
Experimental: as §1

Sequence of TRPC7 (Q9HCX4 whole entry): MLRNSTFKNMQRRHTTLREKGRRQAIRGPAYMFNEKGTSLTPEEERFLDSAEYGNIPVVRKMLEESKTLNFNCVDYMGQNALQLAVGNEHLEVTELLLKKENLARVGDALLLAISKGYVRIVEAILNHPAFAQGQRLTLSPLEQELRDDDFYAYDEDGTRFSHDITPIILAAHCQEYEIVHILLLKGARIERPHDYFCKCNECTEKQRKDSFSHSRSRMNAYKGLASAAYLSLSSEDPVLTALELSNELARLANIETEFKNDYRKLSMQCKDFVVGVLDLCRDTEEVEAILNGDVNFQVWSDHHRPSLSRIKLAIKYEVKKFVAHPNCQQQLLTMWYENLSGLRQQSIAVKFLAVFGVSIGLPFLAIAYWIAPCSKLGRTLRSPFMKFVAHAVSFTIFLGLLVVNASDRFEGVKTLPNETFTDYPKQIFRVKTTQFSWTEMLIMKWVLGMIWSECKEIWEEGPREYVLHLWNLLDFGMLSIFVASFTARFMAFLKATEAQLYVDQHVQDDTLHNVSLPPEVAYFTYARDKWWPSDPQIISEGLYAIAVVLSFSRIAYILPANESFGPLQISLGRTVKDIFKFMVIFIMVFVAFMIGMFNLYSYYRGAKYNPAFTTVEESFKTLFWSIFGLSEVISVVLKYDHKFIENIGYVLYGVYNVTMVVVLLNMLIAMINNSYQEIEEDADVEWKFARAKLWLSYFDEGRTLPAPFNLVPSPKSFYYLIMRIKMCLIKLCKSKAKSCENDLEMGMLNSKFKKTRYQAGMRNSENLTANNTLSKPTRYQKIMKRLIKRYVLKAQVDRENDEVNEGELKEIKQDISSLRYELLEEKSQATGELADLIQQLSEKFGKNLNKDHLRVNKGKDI
Sequence of TRPA1 (O75762 whole entry): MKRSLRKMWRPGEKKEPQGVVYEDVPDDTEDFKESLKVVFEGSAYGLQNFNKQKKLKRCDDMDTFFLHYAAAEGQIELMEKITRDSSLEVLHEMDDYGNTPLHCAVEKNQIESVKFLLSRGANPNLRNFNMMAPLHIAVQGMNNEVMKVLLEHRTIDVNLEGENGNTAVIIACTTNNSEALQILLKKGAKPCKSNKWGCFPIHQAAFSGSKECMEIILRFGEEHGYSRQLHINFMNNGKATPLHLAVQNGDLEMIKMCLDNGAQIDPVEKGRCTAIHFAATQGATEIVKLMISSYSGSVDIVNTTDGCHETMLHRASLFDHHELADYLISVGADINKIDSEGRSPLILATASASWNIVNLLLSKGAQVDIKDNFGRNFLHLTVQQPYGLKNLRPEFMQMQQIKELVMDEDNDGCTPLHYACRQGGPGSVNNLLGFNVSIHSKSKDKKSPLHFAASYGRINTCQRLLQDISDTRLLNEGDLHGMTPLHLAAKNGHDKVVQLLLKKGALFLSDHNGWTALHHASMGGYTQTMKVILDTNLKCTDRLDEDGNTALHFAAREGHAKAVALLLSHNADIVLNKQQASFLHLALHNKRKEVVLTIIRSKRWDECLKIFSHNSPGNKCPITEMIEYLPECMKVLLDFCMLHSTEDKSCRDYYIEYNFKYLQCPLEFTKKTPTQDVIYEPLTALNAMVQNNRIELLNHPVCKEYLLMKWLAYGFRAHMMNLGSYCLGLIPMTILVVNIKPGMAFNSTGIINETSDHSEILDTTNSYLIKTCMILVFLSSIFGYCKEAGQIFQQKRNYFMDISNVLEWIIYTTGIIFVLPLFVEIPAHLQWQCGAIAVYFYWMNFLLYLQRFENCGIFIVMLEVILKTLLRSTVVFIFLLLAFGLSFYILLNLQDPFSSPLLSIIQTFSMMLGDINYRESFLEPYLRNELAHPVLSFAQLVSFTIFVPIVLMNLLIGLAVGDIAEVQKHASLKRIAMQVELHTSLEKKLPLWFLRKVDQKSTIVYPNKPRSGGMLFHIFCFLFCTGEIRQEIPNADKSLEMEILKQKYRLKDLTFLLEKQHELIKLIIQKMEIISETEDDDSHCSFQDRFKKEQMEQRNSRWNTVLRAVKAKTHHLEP

Structure (SMILES): C=C(C)[C@@H]1CCC(C)=C[C@H]1c1c(O)cc(CCCCC)cc1O [cannabidiol, reference compound]
nHill (cannabidiol), TRPV2 [1]: 0.6
EC50 ([1]; read-out: EC50 (cannabidiol), TRPV2): 3.8 µM

IC50 [2]: 103 µM
Structure (SMILES): COc1ccc(CCCOC(Cn2ccnc2)c2ccc(OC)cc2)cc1 (centres unmarked) [SKF 96365, reference compound]

IC50 [3]: 2.3 ± 0.25 µM
Structure (SMILES): COc1ccc(/C=C/C(=O)Nc2ccccc2C(=O)O)cc1OC [tranilast, reference compound]

IC50 [4]: 2.3 µM
Structure (SMILES): Cl.Cl.Cl.Cl.Cl.Cl.N.N.N.N.N.N.N.N.N.N.N.N.N.N.[O-2].[O-2].[Ru+3].[Ru+3].[Ru+4] [ruthenium red, reference compound]
